Data on 29 substances can be found in US20100113332A1, “METHOD OF TREATING AN INFLAMMATORY DISEASE BY DOUBLE STRANDED RIBONUCLEIC ACID” (NASTECH PHARMACEUTICAL COMPANY INC., priority 2004, published 2010).

The subject of one data set is TNF-α mRNA. Put plainly: TNF-α knockdown in human monocytes (branch DNA).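 Note: LPS-activated human CD14+ monocytes, TNF-α mRNA read by branched DNA assay and normalized to cypB mRNA, knockdown compared with random-sequence Qneg siRNA as negative control.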
Data set [1] has as its system 9L/LacZ cells. Put plainly: siRNA uptake by flow cytometry in 9L/LacZ cells. The settings on record: peptide/siRNA complex. In kind it is cell-based, rat. For orientation: A flow cytometer gives signals particle by particle.
Method: (§1) Cells were plated the day before so that they were ˜50-80% confluent at time of transfection. For complexes, siRNA and peptide were diluted in Opti-MEM® media (Invitrogen), then mixed and allowed to complex 5-10 minutes before adding to cells washed with PBS. Final concentration of siRNA was 500 nM at each peptide concentration (2-50 μM). The conjugate, also diluted in Opti-MEM® media, was added to cells at final concentrations ranging from 62.5 nM to 500 nM. At 500 nM concentration, we also combined with 20% FBS just before adding to washed cells. Cells were transfected for 3 hours at 37° C., 5% CO2. Cells were washed with PBS, treated with trypsin and then analyzed by flow cytometry. siRNA uptake was measured by intensity of Cy5 fluorescence and cellular viability assessed by addition of propidium iodide.
Uptake was measured using 9L/lacZ cells transfected as described in Example 2. Cells were washed with PBS, treated with trypsin and then analyzed by flow cytometry. siRNA uptake was measured by intensity of FAM fluorescence and cellular viability assessed by addition of propidium iodide.
In data set [2] the test system is mouse tail fibroblast (MTF) cells. In kind it is cell-based. The settings on record: peptide/siRNA complex.
Method: as §1
The materials and methods used for the experiments performed in 9L/LacZ cells and mouse fibroblast cells are generally the same as described above, except that for the murine experiments, 9L/LacZ cells were replaced with mouse tail fibroblasts.
The test system of data set [3] is interferon response markers (IL-1β, INF-α, IL-6, IL-8, IL-12, MIP-1α, IFN-γ, TNF-α). Put plainly: interferon responsiveness, marker protein ELISA. In kind it is cell-based. The settings on record: for Relative protein expression level of IFN-γ / Relative protein expression level of IL-12 / Relative protein expression level of INF-α: Lipofectamine transfection; for interferon response (ELISA): regardless of transfection reagent. The procedure: Interferon responsiveness was assayed by ELISA (protein) and bDNA (mRNA levels).
For orientation: An ELISA detects its analyte on a solid surface through an enzyme-linked reagent.

In data set [4] the test system is human TNF-α transgenic mice. Description: RA paw score in human TNF-α transgenic mice. The settings on record: for RA progression by paw score at week 8 (FIG. 4): siRNA delivered with PN73.
Method: For human TNF-α animal disease models, two transgenic models were used. The tg197 mice were acquired from Pasteur Hellenic Institute (Athens, Greece), and the B6.SJL-Tg(TNF) N21 mice were purchased from Taconic, Inc. (Germantown, N.Y.). The genotypes of both human TNF-α transgenic mouse models were performed by suppliers. […] All treatments were by tail vein injection twice a week. […] A similar dose regimen was used for B6.SJL-Tg(TNF) N21 mice. Clinical scores were based on a previously described scoring system (2, 3) as follows: 0 (normal), 1 (edema or distortion of paw or ankle joints), 2 (distortion of paw and ankle joints), or 3 (ankylosis of wrist or ankle joints). The sum of all four paws was scored twice a week with a maximum score of 12 per mouse.
For Hellenic transgenic mice, RA scores were determined (blinded to treatment) using the following criteria: 0, normal; 1, edema or distortion of paw or ankle joints; 2 distortion of paw and ankle joints; 3, ankylosis of wrist or ankle joints.
Human NF-α expressing mice were purchase from the Hellenic Pasture Institute, Greece) at 5 weeks old. […] During the injection periods, plasma samples were collected for ELISA testing (R&D Systems, Cat#SSTA00C), and paw scores were taken twice a week as an accepted index of RA disease progression and therapeutic efficacy (Table 19).
Due to the difference in the starting point (some animals present with scores at earlier points), the scores have been adjusted to 0 for all animals in the experiments. Each paw is given a score between 0 and 3, with the highest score of 12, according to the following scoring index. • 0: Normal • 1: edema or distortion of paw or ankle joints • 2: distortion of paw and ankle joints • 3: ankylosis of wrist or ankle joints.
The next data set concerns TNF-α protein. Put plainly: TNF-α protein ELISA in human monocytes. In kind it is cell-based. The settings on record: siRNA screen with Lipofectamine 2000, LPS-activated monocytes.
Data set [5] concerns 9L/LacZ cells. Description: beta-galactosidase knockdown assay of siRNA transfection efficiency. In kind it is cell-based, rat. The settings on record: Histone H2B plus siRNA.
Method: For H3, H4 and H2b, a series of experiments was performed to complex these polynucleotide delivery-enhancing polypeptides with siRNA in different ratios. Generally this was initiated with a 1:0.01 to 1:50 of siRNA/histone ratio. To each well in a 96-well microtiter plate, 40 pm siRNA was added. Each well contained beta-gal cells at 50% confluency.
Transfections were performed with either regular siRNA or siRNA complexed with one of the above-identified histone proteins on 9L/beta-gal cells. The siRNA was designed to specifically knock down beta-galactosidase mRNA, and activities are expressed as percentage of beta-gal activities from control (control cells were transfected using lipofectamine without the polynucleotide delivery-enhancing polypeptide).
For beta-galactosidase assays, 9L/LacZ cells, a cell line constitutively expressing beta-galactosidase, were used. 9L/LacZ cells are rat gliosarcoma fibroblast cells that constitutively express LacZ and were obtained from ATCC (#CRL-2200). […]
The transfection efficiency inversely correlates with the amount of beta-galactosidase activity measured from the cell lysate. Upon transfection, a measured decrease in beta-galactosidase activity indicates a successful transfection. Thus, in the absence of transfection, the measured beta-galactosidase activity is 100% and the transfection efficiency is 0%. […]
The test system of a further data set is human TNF-α. Description: plasma human TNF-α by ELISA in human TNF-α transgenic mice. In kind it is in vivo, mouse. The settings on record: average of the mice. The procedure:
For determination of TNF-α level, For the analysis of experiments involving transgenic mice, plasma samples were separated from whole blood collected by orbital bleeding. Plasma levels of hTNF-α were determined by ELISA at a 1:2 dilution according to the manufacturer's instructions (R&D systems, Minneapolis, Minn.).
For Taconic mice, TNF-α levels in plasma were determined by ELISA (R&D systems, Minneapolis, Minn.) and treatment schedules were same as Hellenic transgenic hTNF-αtransgenic mice.

The mark [6] stands for this setting: siRNA 4 nM complexed with 1.6 uM PN73.
The mark [7] stands for this setting: siRNA 4 nM complexed with 1.6 uM PN509.
[8] abbreviates: siRNA 20 nM complexed with 0.5 uM PN250.
The mark [9] stands for this setting: siRNA 20 nM complexed with 0.75 uM PN250.
The mark [10] stands for this setting: siRNA 20 nM complexed with 1 uM PN250.

From the text for TNF-α mRNA: For mRNA measurement, branch DNA technology from Genospectra (CA) was used according to manufacturer's specification. Human monocytes (CD14+) treated with LPS induce TNF-α-specific mRNA within approximately 2 hrs, followed by peak levels of TNF-α protein 2 hrs later. siRNAs were screened for knockdown activity by transfecting monocytes with siRNA candidate sequences using Lipofectamine 2000, treating infected cells with LPS, and measuring TNF-α mRNA levels approximately 16 hrs later.
To quantitate mRNA level in the cells, both house keeping gene (cypB) and target gene (TNF-α) mRNA were measured, and the reading for TNF-α was normalized with cypB to obtain relative luminescence unit.
Qneg represents a random siRNA sequence and functions as the negative control in these experiments.
Method for TNF-α protein: Human monocytes (CD14+) treated with LPS induce TNF-α-specific mRNA within approximately 2 hrs, followed by peak levels of TNF-α protein 2 hrs later. siRNAs were screened for knockdown activity by transfecting monocytes with siRNA candidate sequences using Lipofectamine 2000, treating infected cells with LPS, and measuring TNF-α mRNA levels approximately 16 hrs later.
To quantitate mRNA level in the cells, both house keeping gene (cypB) and target gene (TNF-α) mRNA were measured, and the reading for TNF-α was normalized with cypB to obtain relative luminescence unit. To quantify protein level, the TNF-α ELISA from BD Bioscience was used according to manufacturer's specification.

For the substance “AACCAAUGCCCUCCUGGCCAA (siRNA; delivered as complex with delivery-enhancing peptide, further chemistry not given here) [LC14]”, the “KD (%) TNF-α” value in the data set on TNF-α mRNA (setting [6]) amounted to 50.76%; with TNF-α mRNA (setting [7]), 42.78%.
In the same order, the values of “AACCCAUGUGCUCCUCACCCA (siRNA; delivered as complex with delivery-enhancing peptide, further chemistry not given here) [LC8]” are 41.24% and 47.35%.
In the same order, the values of “AACCUCCUCUCUGCCAUCAAG (siRNA; delivered as complex with delivery-enhancing peptide, further chemistry not given here) [LC3]” are 23.17% and 30.14%.
As for “AACUGAAAGCAUGAUCCGGGA (siRNA; delivered as complex with delivery-enhancing peptide, further chemistry not given here) [LC4]”, the “KD (%) TNF-α” value in the data set on TNF-α mRNA (setting [6]) is listed as 26.67%; in the data set with TNF-α mRNA (setting [7]) it was 22.71%.
As for “AAGCCUGUAGCCCAUGUUGUA (siRNA; delivered as complex with delivery-enhancing peptide, further chemistry not given here) [LC19]”, the results for the “KD (%) TNF-α” value in the data set on TNF-α mRNA (setting [6]) and in the data set with TNF-α mRNA (setting [7]) were 61.83% and 56.38%, respectively.
In the same order, the values of “AAGCUCCAGUGGCUGAACCGC (siRNA; delivered as complex with delivery-enhancing peptide, further chemistry not given here) [LC9]” are 40.32% and 58.20%.
Taken in the same sequence, the figures for “AAGGGUGACCGACUCAGCGcU (siRNA; as printed in the source, key not given here) [LC6]” were 44.10% and 50.19%.
As to “AAUCAGCCGCAUCGCCGUCUC (siRNA; delivered as complex with delivery-enhancing peptide, further chemistry not given here) [LC7]”, the results for the “KD (%) TNF-α” value in the data set with TNF-α mRNA (setting [6]) and in the data set with TNF-α mRNA (setting [7]) were 42.76% and 56.11%, respectively.
Take “AAUCGGCCCGACUAUCUCGACUU (chemistry not given here) [LC1]”: the “KD (%) TNF-α” value came out at 20.08% in the data set on TNF-α mRNA (setting [6]) and 31.13% in the data set on TNF-α mRNA (setting [7]).
In the same order, the values of “AAUCUCGACUUUGCCGAGUCU (chemistry not given here) [LC5]” are 46.78% and 34.93%.
Taken in the same sequence, the figures for “AAUGGCGUGGAGCUGAGAGAU (siRNA; delivered as complex with delivery-enhancing peptide, further chemistry not given here) [LC2]” were 19.06% and 37.04%.
Turning to AAVALLPAVLLALLAPRKKRRQRRRPPQC [PN27], in the data set with 9L/LacZ cells [1], the “Percent Uptake LacZ Cells” value was 86%. Moreover, the “Percent Uptake Primary MTF Cells” value in data set [2] was 61%.
On to C(YGRKKRRQRRRG)2 [PN204], for which the “Percent Uptake LacZ Cells” value with 9L/LacZ cells [1] turned out to be 83%.
For “CCAGGGACCUCUCUCUAAU (siRNA; delivered as complex with delivery-enhancing peptide, further chemistry not given here) [TNF-4]”, the “KD (%) TNF-α” value in the data set on TNF-α mRNA (setting [8]) came out at 0.90%; in the data set with TNF-α mRNA (setting [9]), 14.39%; in the data set on TNF-α mRNA (setting [10]) it was 26.47%.
Turning to “CCGACUCAGCGCUGAGAUCAA (siRNA; chemistry not fully specified) [LC17]”, in data set [3], the “Relative protein expression level of IFN-γ” value was “Background”, the “Relative protein expression level of IL-12” value is “Background”, the “Relative protein expression level of INF-α” value is listed as “Background” and the “interferon response (ELISA)” value is “no interferon response”. For the same substance, the “KD (%) TNF-α” value in the data set with TNF-α mRNA (setting [6]) was 50.78%. In the data set with TNF-α mRNA (setting [7]), the “KD (%) TNF-α” value is reported as 48.94%. For the same substance, in data set [4] (group TNF #6), the “Relative effect of siRNA, paw score” value is reported as “Overall low paw score. YC12”.
Take “CCUCAGCCUCUUCUCCUUCCUGA (chemistry not given here) [LC12]”: the “KD (%) TNF-α” value in the data set on TNF-α mRNA (setting [6]) worked out at 40.61%; in the data set with TNF-α mRNA (setting [7]) it was 17.03%.
In the same order, the values of “CUGAUUAAGUUGUCUAAACAA (siRNA; delivered as complex with delivery-enhancing peptide, further chemistry not given here) [LC16]” are 55.91% and 40.06%.
In the same order, the values of “CUUGUGAUUAUUUAUUAUUUA (siRNA; delivered as complex with delivery-enhancing peptide, further chemistry not given here) [LC18]” are 63.44% and 58.13%.
Consider “GCAGGUCUACUUUGGGAUC (siRNA; delivered as complex with delivery-enhancing peptide, further chemistry not given here) [YC18]”, for which the “KD (%) TNF-α” value with TNF-α mRNA (setting [8]) was 20.72%; in the data set on TNF-α mRNA (setting [9]) it was 17.82%; in the data set with TNF-α mRNA (setting [10]) it was 24.66%.
Taken in the same sequence, the figures for “GCCCGACUAUCUCGACUUU (siRNA; delivered as complex with delivery-enhancing peptide, further chemistry not given here) [YC17]” were 17.30%, 29.82% and 24.68%.
As to “GCCUGUACCUCAUCUACUC (siRNA; chemistry not fully specified) [YC12]”, the “KD (%) TNF-α” value turned out to be 43.60% in the data set with TNF-α mRNA (setting [6]); 64.37% with TNF-α mRNA (setting [7]); 17.06% in the data set on TNF-α mRNA (setting [8]); 21.66% with TNF-α mRNA (setting [9]); 15.91% with TNF-α mRNA (setting [10]). Moreover, the “Relative effect of siRNA, paw score” value in data set [4] (group TNF #6) is “Overall low paw score. YC12”.
Turning to “GCCUGUAGCCCAUGUUGUA (chemistry not given here) [TNF-α-2]”, the “RA progression by paw score at week 8 (FIG. 4)” value in data set [4] is on record as “delayed RA progression”.
“GCGUGGAGCUGAGAGAUAA (chemistry not given here) [TNF-α-1]”: the “reduction in TNF-α protein level” value in the data set with TNF-α protein is listed as 75%. The “TNF-α mRNA knockdown” value with TNF-α mRNA (siRNA screen with Lipofectamine 2000, LPS-activated monocytes) is 50%.
With “GCGUGGAGCUGAGAGAUAA (siRNA; delivered as complex with delivery-enhancing peptide, further chemistry not given here) [YC11]”, the “KD (%) TNF-α” value in the data set with TNF-α mRNA (setting [8]) came to 13.70%; with TNF-α mRNA (setting [9]), 21.09%; with TNF-α mRNA (setting [10]) it was 33.10%.
In the case of Histone H2B, the measured beta-galactosidase activity with 9L/LacZ cells [5] turned out to be 37.97%.
In the case of “NH2-LLETLLKPFQCRICMRNFSTRQARRNHRRRHRR-amide (H-LLETLLKPFQCRICMRNFSTRQARRNHRRRHRR-NH2; cysteine pairing not given here) [PN202]”, the “Percent Uptake LacZ Cells” value in the data set on 9L/LacZ cells [1] turned out to be 71%.
For “NH2-RKKRRQRRRPPQCAAVALLPAVLLALLAP-amide (H-RKKRRQRRRPPQCAAVALLPAVLLALLAP-NH2) [PN28]”, the “Percent Uptake LacZ Cells” value in the data set on 9L/LacZ cells [1] turned out to be 79%. For the same substance, in data set [2], the “Percent Uptake Primary MTF Cells” value turned out to be 81%.
In the case of UAGGGUCGGAACCCAAGCUUA [LC20], the “Relative protein expression level of IFN-γ” value in data set [3] is on record as “Background”. The “Relative protein expression level of IL-12” value in data set [3] is listed as “Background”. In data set [3], the “Relative protein expression level of INF-α” value is listed as “Background”. In addition, the “interferon response (ELISA)” value in data set [3] was “no interferon response”. Also, the “TNF-α knockdown activity (FIG. 6-C)” value with TNF-α mRNA (absence of PN73, 0-2.5 nM) was “little knockdown activity”. The “KD (%) TNF-α” value was 42.68% at TNF-α mRNA (setting [6]); 71.12% on TNF-α mRNA (setting [7]); −3.80% on TNF-α mRNA (setting [8]); 10.72% at TNF-α mRNA (setting [9]); 26.53% on TNF-α mRNA (setting [10]). Moreover, the “decrease in TNF-α gene expression relative to Qneg control (FIG. 6-B)” value in the data set with TNF-α mRNA (siRNA complexed with PN73 1:1, 0-2.5 nM) is reported as about 30%. The “delay in RA progression relative to lower doses” value in data set [4] (2 mg/kg LC20, PN73 1:5) was “greatest relative observed delay in RA progression”. Moreover, the “Relative effect of siRNA, effectiveness relative to Ramicade” value in data set [4] (group TNF #1 (LC20, Ramicade, PBS)) was “LC20 is as effective as”. Moreover, the results for the “Relative effect of siRNA, paw score” value in data set [4] (group TNF #4) and in data set [4] (group TNF #6) were “Overall low paw score” and “Overall low paw score. YC12”, respectively. For the same substance, the “Relative effect of siRNA, effectiveness relative to Ramicade by week 8” value in data set [4] (group TNF #7) is “LC20 and TNF-α9 are more”. Further, the “Relative effect of siRNA, effectiveness relative to Ramicade by week 11” value in data set [4] (group TNF #7) was “week 8; LC20 is equally”. Also, the “RA progression by paw score at week 8 (FIG. 4)” value in data set [4] was “delayed RA progression”.
Turning to infliximab [Ramicade], the “RA score (paw and joint inflammation)” value in data set [4] (twice weekly from age 6 weeks, effect beginning at age 7 weeks) is given as “RA score stabilization”. Also, the results for the “Quantity of TNF-α protein in blood plasma by ELISA” value with human TNF-α (age 7 weeks), with human TNF-α (age 8 weeks) and with human TNF-α (age 9 weeks) were 102.24 pg/mL, 39.27 pg/mL and 25.80 pg/mL, respectively.
